From patent US20230092001A1, “FURANEOL GLYCOSIDE COMPOUND, PHARMACEUTICAL COMPOSITION THEREOF, PREPARATION METHOD THEREFOR, AND APPLICATION THEREOF” (priority 2019, published 2023)

Experiments:
[1] = system: ulcerative colitis model (dextran sodium sulphate); experiment: Effect Example 3: therapeutic effect on ulcerative colitis, dextran sodium sulphate model, oral gavage, 7 days; assay type: in vivo, C57 mice; details: 40 mg/kg oral gavage
Procedure: Fifty 10-week-old male C57 mice, SPF class animal house, temperature 20-26° C., humidity 40%-70%, alternating light-dark periods (12 h/12 h).
(§1) Quarantine-qualified animals with similar weights were selected for the experiment.
Mice in the blank control group were given normal drinking water throughout the experiment. The other 9 groups of mice were given drinking water containing 2% dextran sodium sulphate from day 1 to day 7. All groups were administered by oral gavage once a day according to table 10, until the end of the experiment.
(§2) (1) The mice were weighed daily.
(2) Blood samples were collected from the orbital vein on day 7 and stored at −80° C.
(3) On day 7, the mice were sacrificed by cervical vertebra dislocation, the colon was removed and a small amount of fecal was taken from the colon and left as a sample. The colon length and colon weight were measured. A portion of the colon and the fecal sample was stored at −80° C.

[2] = system: ulcerative colitis model (dextran sodium sulphate); experiment: Effect Example 1: therapeutic effect on ulcerative colitis, dextran sodium sulphate model, injected treatment, 14 days; assay type: in vivo, C57 mice; details: for Average colon length of mice / Average colon weight of mice / Unit colon weight of mice (colon weight/colon length): day 14
Procedure: Thirty 10-week-old male C57 mice, SPF class animal house, temperature 20-26° C., humidity 40%-70%, alternating light-dark periods (12 h/12 h).
as §1
Mice in the blank control group were given normal drinking water throughout the experiment. The other 5 groups of mice were given drinking water containing 2% dextran sodium sulphate (DSS) from day 1 to day 5, normal drinking water from day 6 to day 7, drinking water containing 2% dextran sodium sulphate from day 8 to day 12, and normal drinking water from day 13 to day 14. The experiment ended on day 14.
Animals in the blank control group and ulcerative colitis model group were given sterile water intraperitoneally from day 1, once a day; the other 4 groups were administered according to table 1, once a day, until the end of the experiment on day 14. Two hours after the first day of administration, the mice were started to drink water containing dextran sodium sulphate.
as §2
(2) Blood samples were collected from the orbital vein on day 14 and stored at −80° C.
(3) On day 14, the mice were sacrificed by cervical vertebra dislocation, the colon was removed and a small amount of fecal was taken from the colon and left as a sample. The colon length and colon weight were measured. A portion of the colon and the fecal sample was stored at −80° C.

[3] = Day 1, high-dose treatment group 40 mg/kg intraperitoneal injection
[4] = Day 1, low-dose treatment group 10 mg/kg intraperitoneal injection
[5] = Day 1, middle-dose treatment group 20 mg/kg intraperitoneal injection
[6] = Day 2, high-dose treatment group 40 mg/kg intraperitoneal injection
[7] = Day 2, low-dose treatment group 10 mg/kg intraperitoneal injection
[8] = Day 2, middle-dose treatment group 20 mg/kg intraperitoneal injection
[9] = Day 3, high-dose treatment group 40 mg/kg intraperitoneal injection
[10] = Day 3, low-dose treatment group 10 mg/kg intraperitoneal injection
[11] = Day 3, middle-dose treatment group 20 mg/kg intraperitoneal injection
[12] = Day 4, high-dose treatment group 40 mg/kg intraperitoneal injection
[13] = Day 4, low-dose treatment group 10 mg/kg intraperitoneal injection
[14] = Day 4, middle-dose treatment group 20 mg/kg intraperitoneal injection
[15] = Day 5, high-dose treatment group 40 mg/kg intraperitoneal injection
[16] = Day 5, low-dose treatment group 10 mg/kg intraperitoneal injection
[17] = Day 5, middle-dose treatment group 20 mg/kg intraperitoneal injection
[18] = Day 6, high-dose treatment group 40 mg/kg intraperitoneal injection
[19] = Day 6, low-dose treatment group 10 mg/kg intraperitoneal injection
[20] = Day 6, middle-dose treatment group 20 mg/kg intraperitoneal injection
[21] = Day 7, high-dose treatment group 40 mg/kg intraperitoneal injection
[22] = Day 7, low-dose treatment group 10 mg/kg intraperitoneal injection
[23] = Day 7, middle-dose treatment group 20 mg/kg intraperitoneal injection
[24] = Day 8, high-dose treatment group 40 mg/kg intraperitoneal injection
[25] = Day 8, low-dose treatment group 10 mg/kg intraperitoneal injection
[26] = Day 8, middle-dose treatment group 20 mg/kg intraperitoneal injection
[27] = Day 9, high-dose treatment group 40 mg/kg intraperitoneal injection
[28] = Day 9, low-dose treatment group 10 mg/kg intraperitoneal injection
[29] = Day 9, middle-dose treatment group 20 mg/kg intraperitoneal injection
[30] = Day 10, high-dose treatment group 40 mg/kg intraperitoneal injection
[31] = Day 10, low-dose treatment group 10 mg/kg intraperitoneal injection
[32] = Day 10, middle-dose treatment group 20 mg/kg intraperitoneal injection
[33] = Day 11, high-dose treatment group 40 mg/kg intraperitoneal injection
[34] = Day 11, low-dose treatment group 10 mg/kg intraperitoneal injection
[35] = Day 11, middle-dose treatment group 20 mg/kg intraperitoneal injection
[36] = Day 12, high-dose treatment group 40 mg/kg intraperitoneal injection
[37] = Day 12, low-dose treatment group 10 mg/kg intraperitoneal injection
[38] = Day 12, middle-dose treatment group 20 mg/kg intraperitoneal injection
[39] = Day 13, high-dose treatment group 40 mg/kg intraperitoneal injection
[40] = Day 13, low-dose treatment group 10 mg/kg intraperitoneal injection
[41] = Day 13, middle-dose treatment group 20 mg/kg intraperitoneal injection
[42] = Day 14, high-dose treatment group 40 mg/kg intraperitoneal injection
[43] = Day 14, low-dose treatment group 10 mg/kg intraperitoneal injection
[44] = Day 14, middle-dose treatment group 20 mg/kg intraperitoneal injection
[45] = high-dose treatment group 40 mg/kg intraperitoneal injection
[46] = low-dose treatment group 10 mg/kg intraperitoneal injection
[47] = middle-dose treatment group 20 mg/kg intraperitoneal injection
[48] = intraperitoneal injection 10, 20, 40 mg/kg, vs ulcerative colitis model group

CC(C)=C1OC(C)=C(O[C@@H]2O[C@H](CO)[C@@H](O)[C@H](O)[C@H]2O)C1=O [Compound I-1, 4-O-β-D-glucosyl-5-methyl-2-(1-methylethylidene)-3(2H)-furanone]
Effect on the colon length (in words) [1]: can gradually restore the colon length
Average weight of mice ([1]; Day 1): 21.33 g
Average weight of mice ([1]; Day 2): 20.97 g
Average weight of mice ([1]; Day 3): 20.80 g
Average weight of mice ([1]; Day 4): 20.85 g
Average weight of mice ([1]; Day 5): 20.53 g
Average weight of mice ([1]; Day 6): 20.13 g
Average weight of mice ([1]; Day 7): 19.82 g
Average colon length of mice ([1]; day 7): 6.2 cm
Average weight of mice [2, 3]: 27.6 g
Rate of change in weight of mice [2, 3]: 100.0%
Average weight of mice [2, 4]: 27.9 g
Rate of change in weight of mice [2, 4]: 100.0%
Average weight of mice [2, 5]: 27.8 g
Rate of change in weight of mice [2, 5]: 100.0%
Average weight of mice [2, 6]: 27.6 g
Rate of change in weight of mice [2, 6]: 99.9%
Average weight of mice [2, 7]: 28.1 g
Rate of change in weight of mice [2, 7]: 100.6%
Average weight of mice [2, 8]: 27.8 g
Rate of change in weight of mice [2, 8]: 100.1%
Average weight of mice [2, 9]: 27.6 g
Rate of change in weight of mice [2, 9]: 100.0%
Average weight of mice [2, 10]: 28.0 g
Rate of change in weight of mice [2, 10]: 100.5%
Average weight of mice [2, 11]: 27.9 g
Rate of change in weight of mice [2, 11]: 100.3%
Average weight of mice [2, 12]: 27.6 g
Rate of change in weight of mice [2, 12]: 100.0%
Average weight of mice [2, 13]: 28.0 g
Rate of change in weight of mice [2, 13]: 100.3%
Average weight of mice [2, 14]: 27.9 g
Rate of change in weight of mice [2, 14]: 100.3%
Average weight of mice [2, 15]: 27.3 g
Rate of change in weight of mice [2, 15]: 99.1%
Average weight of mice [2, 16]: 27.2 g
Rate of change in weight of mice [2, 16]: 97.6%
Average weight of mice [2, 17]: 27.5 g
Rate of change in weight of mice [2, 17]: 99.1%
Average weight of mice [2, 18]: 27.2 g
Rate of change in weight of mice [2, 18]: 98.7%
Average weight of mice [2, 19]: 26.3 g
Rate of change in weight of mice [2, 19]: 94.3%
Average weight of mice [2, 20]: 27.2 g
Rate of change in weight of mice [2, 20]: 97.8%
Average weight of mice [2, 21]: 26.8 g
Rate of change in weight of mice [2, 21]: 97.0%
Average weight of mice [2, 22]: 25.9 g
Rate of change in weight of mice [2, 22]: 93.0%
Average weight of mice [2, 23]: 26.7 g
Rate of change in weight of mice [2, 23]: 96.0%
Average weight of mice [2, 24]: 26.3 g
Rate of change in weight of mice [2, 24]: 95.3%
Average weight of mice [2, 25]: 25.6 g
Rate of change in weight of mice [2, 25]: 91.6%
Average weight of mice [2, 26]: 26.2 g
Rate of change in weight of mice [2, 26]: 94.3%
Average weight of mice [2, 27]: 25.8 g
Rate of change in weight of mice [2, 27]: 93.5%
Average weight of mice [2, 28]: 25.3 g
Rate of change in weight of mice [2, 28]: 90.8%
Average weight of mice [2, 29]: 25.9 g
Rate of change in weight of mice [2, 29]: 93.2%
Average weight of mice [2, 30]: 25.6 g
Rate of change in weight of mice [2, 30]: 92.7%
Average weight of mice [2, 31]: 24.9 g
Rate of change in weight of mice [2, 31]: 89.1%
Average weight of mice [2, 32]: 25.6 g
Rate of change in weight of mice [2, 32]: 92.2%
Average weight of mice [2, 33]: 25.5 g
Rate of change in weight of mice [2, 33]: 92.2%
Average weight of mice [2, 34]: 24.4 g
Rate of change in weight of mice [2, 34]: 87.5%
Average weight of mice [2, 35]: 25.3 g
Rate of change in weight of mice [2, 35]: 91.1%
Average weight of mice [2, 36]: 25.4 g
Rate of change in weight of mice [2, 36]: 92.0%
Average weight of mice [2, 37]: 24.1 g
Rate of change in weight of mice [2, 37]: 86.4%
Average weight of mice [2, 38]: 25.0 g
Rate of change in weight of mice [2, 38]: 90.0%
Average weight of mice [2, 39]: 25.3 g
Rate of change in weight of mice [2, 39]: 91.5%
Average weight of mice [2, 40]: 23.8 g
Rate of change in weight of mice [2, 40]: 85.3%
Average weight of mice [2, 41]: 24.8 g
Rate of change in weight of mice [2, 41]: 89.2%
Average weight of mice [2, 42]: 25.2 g
Rate of change in weight of mice [2, 42]: 91.4%
Average weight of mice [2, 43]: 23.7 g
Rate of change in weight of mice [2, 43]: 84.9%
Average weight of mice [2, 44]: 24.7 g
Rate of change in weight of mice [2, 44]: 88.8%
Average colon length of mice [2, 45]: 6.52 cm
Average colon weight of mice [2, 45]: 0.2129 g
Unit colon weight of mice (colon weight/colon length) [2, 45]: 0.0327 g/cm
Average colon length of mice [2, 46]: 5.46 cm
Average colon weight of mice [2, 46]: 0.1909 g
Unit colon weight of mice (colon weight/colon length) [2, 46]: 0.0351 g/cm
Average colon length of mice [2, 47]: 6.04 cm
Average colon weight of mice [2, 47]: 0.2115 g
Unit colon weight of mice (colon weight/colon length) [2, 47]: 0.0351 g/cm
Colon length compared with the positive control group (in words) ([2]; high-dose treatment group 40 mg/kg intraperitoneal injection vs cyclosporine A 50 mg/kg): even better than the positive control group
Effect on the length of the colon (in words) [2, 48]: could gradually restore the length of the colon to normal
Effect on the reduction in the weight of mice (in words) [2, 48]: significant ameliorating effect on the reduction in the weight of mice
Effect on the unit colon weight (in words) [2, 48]: could significantly improve the unit colon weight
